Read-outs that look alike come from different tables or passages of the source.
Experiments:
[1] = target: T1, human adenylate kinase isoenzyme 1 (hAK1) (Homo sapiens, UniProt P00568); assay: Fluorescence quenching of hAK1 intrinsic (tyrosine) fluorescence by statins, one-site binding model; conditions: read-out: Kd (dissociation constant)
T1 construct: thrombin recognition site (C); 6xHis-tag (C); made in house; host or cells: E. coli BL21-CodonPlus(DE3)-RIL, pET-3a(+)
T1 sequence (P00568 1-194): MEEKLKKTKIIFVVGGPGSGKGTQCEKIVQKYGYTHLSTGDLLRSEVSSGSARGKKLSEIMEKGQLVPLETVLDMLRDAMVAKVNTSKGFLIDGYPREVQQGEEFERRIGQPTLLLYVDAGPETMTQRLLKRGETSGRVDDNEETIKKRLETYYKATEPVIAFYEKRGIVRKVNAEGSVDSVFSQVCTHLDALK
Protocol: The fluorescence emission spectra and plots of F versus [L] for the hAK1 quenching process at 20 and 25 °C are presented in Figure S2, while the emission spectra of hAK1, buffer (HEPES-NaOH) and five statins are shown in Figure S3. To analyze the quenching data upon the formation of an hAK1-statin complex, we used the following equation, which assumes a 1:1 stoichiomery:(1) PL/Pt=Pt+La+Kd−(Pt+La+Kd)^2−4PtLa/2Pt where Kd is the dissociation constant, [P]t is the concentration of protein, [L]a is the total concentration of the ligand, and [PL] it the concentration of protein-ligand complex.
The obtained fluorescence data were fitted to the one-site binding model with an applied nonlinear least-squares regression using OriginPro software (Figure 3).
Measurements were recorded in the range of 300–600 nm after excitation at λ = 289 nm at 20, 25 and 37 °C. Stock solutions of all statins were prepared in ethanol. The samples were prepared in 2 mL Eppendorf tubes and contained hAK1 at a concentration of 2 µM alone or with a statin at the following concentrations: 2, 4, 8, 16, 24, 32 and 40 µM, and 25 mM HEPES-NaOH (pH 7.5) was added to each tube, up to 2 mL. Then, the sample was transferred into the quartz cell and the spectrum was recorded. The emission spectra were measured three times. The fluorescence spectra of hAK1 in presence of statins were corrected for the inner filter effect using the following equation [63, 64]:(2) Fcor=Fobs∗ 10^AλEx+AλEm/2 where Fcor is the corrected fluorescence intensity and Fobs is the observed fluorescence intensity, AλEx is the absorption value at the excitation wavelength and AλEm is the absorption value at the emission wavelength. The fluorescence data were fitted by applying a nonlinear least-squares regression using OriginPro software Version 2016 (OriginLab Corporation, Northampton, MA, USA).

[2] = target: T1, human adenylate kinase isoenzyme 1 (hAK1); assay: Adenylate kinase activity assay and enzyme inhibition studies (RP-HPLC), hAK1; type: biochemical; conditions: for IC50: 37 °C
Protocol: The reaction mixture for ATP synthesis contained 2 mM MgCl2, 1 mM ADP in 10 mM HEPES-NaOH, pH 7.5. The reaction mixture for ADP synthesis was composed of 2 mM MgCl2, 1 mM AMP and ATP each, in 10 mM HEPES-NaOH, pH 7.5. […] Studies on the statin inhibition mode were performed using varying concentrations of ADP as a substrate (from 0.2 to 1.0 mM) at different fixed concentrations of statin (0, 150, 300 and 450 µM). Adenylate kinase activity measurement was carried out in 50 μL of the reaction mixture for 5–10 min at 37 °C. The reaction was terminated by the addition of 50 μL of 1 M HClO4. After 5 min incubation on ice, samples were centrifuged at 15,000× g for 5 min at 4 °C. Then, 50 μL of the obtained supernatant was neutralized with 25 μL of 1 M KOH and delipidated by shaking with n-heptane (1:5 v/v). The samples were centrifuged as above, and subsequently, adenine nucleotide concentrations were analyzed by the RP-HPLC (reversed-phase high-performance liquid chromatography) method as previously described. Briefly, purine nucleotides were separated in isocratic conditions on the Chromolith Performance RP-18e column, 4.6 mm × 100 mm (Merck, Darmstadt, Germany) using the Shimadzu Prominence LC (Kyoto, Japan) equipped with pump (LC-20AD), autosampler (SIL-20AC), column thermostat (CTO-10AS) and photodiode array detector (SPD-M20A). HPLC system control, data acquisitions and processing were done with LabSolutions software. The samples were eluted using 0.1 M phosphate buffer, pH 7.0 containing 25 mM TBA, 5 mM EDTA and 3% methanol. ADP and ATP produced during the AK-catalyzed reaction were detected at λ = 260 nm based on the retention times of standard nucleotide solutions. The AK enzymatic activity was determined by quantifying the product concentration using correlation coefficients calculated from ADP and ATP calibration curves. One unit (U) of AK activity is defined as the amount of the enzyme that catalyzes the production of 1.0 μmole of ADP or ATP per minute at 37 °C, under the assay conditions specified above. The specific activity of AK was calculated as the number of units per milligram of protein. The Lineweaver–Burk plot was used to present enzyme-substrate reactions with and without statin, where the y-intercept is equivalent to the inverse of Vmax and the x-intercept represents −1/KM. The calculation of the IC50 values was performed using GraphPad Prism 8 Software (San Diego, CA, USA).

serum AK = system: serum AK; design: method as in PMID 18576946; conditions: 0.5 mM AMP and 0.8 mM ATP as substrates; cited from earlier work
[3] = system: endothelial cell-surface AK; design: method as in PMID 18576946; conditions: 0.5 mM AMP and 0.8 mM ATP as substrates; cited from earlier work
[4] = target: T2, adenylate kinase from Geobacillus stearothermophilus (AKst) (Geobacillus stearothermophilus, UniProt P27142); assay: Adenylate kinase activity assay in the presence of statins, AKst (long type AK); type: biochemical; conditions: same drug concentration range as in hAK1 experiments; ADP or ATP and AMP as substrates, 1 mM each
T2 construct: made in house; host or cells: E. coli BL21-CodonPlus(DE3)-RIL, pET-3a(+)
T2 sequence (P27142 whole entry): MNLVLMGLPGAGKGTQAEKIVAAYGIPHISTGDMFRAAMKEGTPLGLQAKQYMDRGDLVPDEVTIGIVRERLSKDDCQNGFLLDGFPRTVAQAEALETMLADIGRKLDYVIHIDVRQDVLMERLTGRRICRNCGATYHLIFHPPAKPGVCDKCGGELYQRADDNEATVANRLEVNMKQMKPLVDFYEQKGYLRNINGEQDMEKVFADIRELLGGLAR
Protocol: Next, we measured the enzymatic activity of AKst in the presence of RVS and SVS at the same drug concentration range as in the hAK1 experiments (Figure S4). […] This region has limited accessibility in AKst due to the presence of a markedly bigger LID domain as compared to hAK1, which may consequently prevent the binding of statins to AKst.
The reaction mixture for ATP synthesis contained 2 mM MgCl2, 1 mM ADP in 10 mM HEPES-NaOH, pH 7.5. The reaction mixture for ADP synthesis was composed of 2 mM MgCl2, 1 mM AMP and ATP each, in 10 mM HEPES-NaOH, pH 7.5. […] Studies on the statin inhibition mode were performed using varying concentrations of ADP as a substrate (from 0.2 to 1.0 mM) at different fixed concentrations of statin (0, 150, 300 and 450 µM). […] The samples were centrifuged as above, and subsequently, adenine nucleotide concentrations were analyzed by the RP-HPLC (reversed-phase high-performance liquid chromatography) method as previously described. […] ADP and ATP produced during the AK-catalyzed reaction were detected at λ = 260 nm based on the retention times of standard nucleotide solutions. The AK enzymatic activity was determined by quantifying the product concentration using correlation coefficients calculated from ADP and ATP calibration curves. […] The specific activity of AK was calculated as the number of units per milligram of protein. […]

[5] = 20 °C, 2 µM hAK1, 25 mM HEPES-NaOH pH 7.5
[6] = 25 °C, 2 µM hAK1, 25 mM HEPES-NaOH pH 7.5
[7] = 37 °C, 2 µM hAK1, 25 mM HEPES-NaOH pH 7.5
[8] = 1 mM ADP, ATP synthesis direction, read-out: IC50 (ADP as a Substrate)
[9] = 1 mM AMP and ATP each, ADP synthesis direction, read-out: IC50 (ATP + AMP as Substrates)

SMILES | Kd [1, 5] [µM] | Kd [1, 6] [µM] | Kd [1, 7] [µM] | IC50 [2, 8] [µM] | IC50 [2, 9] [µM] | IC50 ([2]; ADP or ATP + AMP as substrates, read-out: IC50 values in both directions of the hAK1-catalyzed reaction) [µM] | IC50 (serum AK) [µM] | IC50 [3] [µM] | hAK1 inhibition mode (Lineweaver-Burk plot) ([2]; ADP 0.2 to 1.0 mM, fixed statin concentrations 0, 150, 300 and 450 µM) | hAK1 inhibition ([2]; RVS at a concentration above 200 μM) [%] | Effect on the AKst enzymatic activity [4] | Kd ([1]; 37 °C) [µM]
CC(C)c1c(C(=O)Nc2ccccc2)c(-c2ccccc2)c(-c2ccc(F)cc2)n1CC[C@@H](O)C[C@@H](O)CC(=O)O [AVS, Atorvastatin] | 16 ± 2.1 | 27.2 ± 6.8 | 29.5 ± 3.7 | 223 ± 34 | 237 ± 31 | > 200 | – | – | – | – | – | –
Nc1ncnc2c1ncn2[C@@H]1O[C@H](COP(=O)(O)OP(=O)(O)OP(=O)(O)OP(=O)(O)OP(=O)(O)OC[C@H]2O[C@@H](n3cnc4c(N)ncnc43)[C@H](O)[C@@H]2O)[C@@H](O)[C@H]1O [Ap5A, P^1,P^5-di(adenosine-5′)pentaphosphate] | – | – | – | – | – | – | 6.3 | 6 | – | – | – | –
CC(C)n1c(/C=C/C(O)CC(O)CC(=O)O)c(-c2ccc(F)cc2)c2ccccc21 (stereo not drawn) [FVS, Fluvastatin] | 17.4 ± 2 | 23.1 ± 4 | 26.6 ± 5.5 | 126 ± 7 | 156 ± 11 | – | – | – | – | – | – | –
CC[C@H](C)C(=O)O[C@H]1C[C@H](O)C=C2C=C[C@H](C)[C@H](CC[C@@H](O)C[C@@H](O)CC(=O)O)[C@H]21 [PVS, Pravastatin] | 19.4 ± 4.1 | 26.4 ± 6.2 | 28.6 ± 8.2 | 95 ± 19 | 211 ± 33 | – | – | – | – | – | – | –
CC(C)c1nc(N(C)S(C)(=O)=O)nc(-c2ccc(F)cc2)c1/C=C/[C@@H](O)C[C@@H](O)CC(=O)O [RVS, Rosuvastatin] | 9.2 ± 1.5 | 16.8 ± 1.8 | 18.9 ± 3.2 | 166 ± 20 | 89 ± 15 | – | – | – | noncompetitive | 90 | not found any inhibitory effect | –
CCC(C)(C)C(=O)O[C@H]1C[C@@H](C)C=C2C=C[C@H](C)[C@H](CC[C@@H]3C[C@@H](O)CC(=O)O3)[C@H]21 [SVS, Simvastatin] | 6.6 ± 1.2 | 10.9 ± 1.6 | 15.2 ± 2 | 5.5 ± 1.2 | 3.1 ± 0.5 | – | – | – | – | – | not found any inhibitory effect | 15.2 ± 2

Source: paper PMC8197361, “Assessing the Interactions of Statins with Human Adenylate Kinase Isoenzyme 1: Fluorescence and Enzyme Kinetic Studies” (International Journal of Molecular Sciences, 2021)
